The experiment deals with human factor Xa (FXa) (Homo sapiens, UniProt P00742). Put plainly: Determination of the factor Xa inhibition (chromogenic substrate). It counts as biochemical. To be noted: chromogenic substrate Pefachrome FXa, 25° C., extinction at 405 nm. The procedure: a.1) Determination of the Factor Xa Inhibition:
The enzymatic activity of human factor Xa (FXa) is measured using the conversion of a chromogenic substrate specific for FXa. Factor Xa cleaves p-nitroaniline from the chromogenic substrate. The determinations are carried out in microtitre plates as follows:
The test substances, in various concentrations, are dissolved in DMSO and incubated for 10 minutes at 25° C. with human FXa ([…] dissolved in 50 mmol of Tris buffer [C,C,C-tris(hydroxymethyl)aminomethane], 150 mmol/l of NaCl, 0.1% BSA [bovine serum albumin], pH=8.3). Pure DMSO is used as control. The chromogenic substrate (150 μmol/l of Pefachrome® FXa from Pentapharm) is then added. After an incubation time of 20 minutes at 25° C., the extinction at 405 nm is determined.

Chain of human factor Xa (FXa) (P00742 235-488 limits assumed): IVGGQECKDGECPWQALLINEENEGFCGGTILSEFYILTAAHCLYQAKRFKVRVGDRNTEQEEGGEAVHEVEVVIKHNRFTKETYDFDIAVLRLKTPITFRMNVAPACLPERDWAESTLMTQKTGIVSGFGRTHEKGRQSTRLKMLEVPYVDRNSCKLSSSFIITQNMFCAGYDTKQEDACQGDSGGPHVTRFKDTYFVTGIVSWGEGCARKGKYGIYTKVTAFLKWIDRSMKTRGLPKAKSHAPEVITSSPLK
Chain of human factor Xa (FXa) (P00742 41-179 partner limits assumed): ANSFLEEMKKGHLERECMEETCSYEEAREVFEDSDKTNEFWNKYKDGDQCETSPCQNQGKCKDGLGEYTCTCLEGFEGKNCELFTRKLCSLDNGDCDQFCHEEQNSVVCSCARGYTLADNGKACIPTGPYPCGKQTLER

Turning to `COc1ccc(-n2nc(C(N)=O)c3c2C(=O)N(c2ccc(N4CCOC4=N)cc2)CC3)cc1` [Example 1, 6-[4-(2-Imino-1,3-oxazolidin-3-yl)phenyl]-1-(4-methoxyphenyl)-7-oxo-4,5,6,7-tetrahydro-1H-pyrazolo[3,4-c]pyridine-3-carboxamide methanesulphonate], the IC50 (commonly the midpoint of a concentration-inhibition curve) was determined as 0.8 nM.

Values taken from patent US20100048611A1, “TETRAHYDROPYRROLOPYRIDINE, TETRAHYDROPYRAZOLOPYRIDINE, TETRAHYDRO-IMIDAZOPYRIDINE AND TETRAHYDROTRIAZOLOPYRIDINE DERIVATIVES AND USE THEREOF” (Bayer Healthcare AG, priority 2006, published 2010).
